Among the data in ChEMBL document CHEMBL1137844, “Design, synthesis and structure-activity relationship of novel RXR-selective modulators” (Bioorg Med Chem Lett, 2004) are Ki, IC50 and EC50 values, retold here.

Experiment [1] deals with T1, Retinoic acid receptor RXR-beta (Homo sapiens, UniProt P28702).
T1 sequence (P28702 whole entry): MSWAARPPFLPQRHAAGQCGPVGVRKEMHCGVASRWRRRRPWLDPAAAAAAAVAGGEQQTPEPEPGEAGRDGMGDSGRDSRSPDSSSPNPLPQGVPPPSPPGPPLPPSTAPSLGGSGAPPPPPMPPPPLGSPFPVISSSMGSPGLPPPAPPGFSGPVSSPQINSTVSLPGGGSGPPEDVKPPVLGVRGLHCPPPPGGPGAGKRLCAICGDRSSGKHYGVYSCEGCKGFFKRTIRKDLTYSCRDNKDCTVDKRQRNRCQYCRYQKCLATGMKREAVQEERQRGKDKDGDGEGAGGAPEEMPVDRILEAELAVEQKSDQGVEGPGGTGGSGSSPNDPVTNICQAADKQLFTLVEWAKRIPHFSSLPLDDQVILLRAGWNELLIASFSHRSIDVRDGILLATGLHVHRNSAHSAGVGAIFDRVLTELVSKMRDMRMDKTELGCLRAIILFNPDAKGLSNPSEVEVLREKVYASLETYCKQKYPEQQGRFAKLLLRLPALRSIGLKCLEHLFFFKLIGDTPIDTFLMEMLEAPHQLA
The experiment is described as follows: Displacement of [3H]9-cis-RA from Retinoic X receptor beta. (In a radioligand displacement assay an active substance lowers the binding of a labelled ligand.)

Experiment [2] addresses T2, Retinoic acid receptor alpha (Homo sapiens, UniProt P10276).
T2 sequence (P10276 whole entry): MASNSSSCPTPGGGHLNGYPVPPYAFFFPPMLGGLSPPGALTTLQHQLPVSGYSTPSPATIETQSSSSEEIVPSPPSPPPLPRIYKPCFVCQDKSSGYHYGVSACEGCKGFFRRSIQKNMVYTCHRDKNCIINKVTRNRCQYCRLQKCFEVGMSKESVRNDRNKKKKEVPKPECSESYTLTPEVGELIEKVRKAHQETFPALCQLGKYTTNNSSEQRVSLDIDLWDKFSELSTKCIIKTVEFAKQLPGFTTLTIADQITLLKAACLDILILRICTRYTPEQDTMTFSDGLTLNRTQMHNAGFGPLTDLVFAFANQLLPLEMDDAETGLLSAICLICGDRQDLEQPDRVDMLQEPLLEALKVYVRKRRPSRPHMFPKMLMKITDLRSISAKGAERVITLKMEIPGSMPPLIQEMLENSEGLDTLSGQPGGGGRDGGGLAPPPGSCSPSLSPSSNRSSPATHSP
The experiment in a line: Binding affinity against retinoic acid receptor alpha by [3H]ATRA displacement.

Experiment [3] deals with T3, Retinoic acid receptor RXR-alpha (Homo sapiens, UniProt P19793).
T3 sequence (P19793 whole entry): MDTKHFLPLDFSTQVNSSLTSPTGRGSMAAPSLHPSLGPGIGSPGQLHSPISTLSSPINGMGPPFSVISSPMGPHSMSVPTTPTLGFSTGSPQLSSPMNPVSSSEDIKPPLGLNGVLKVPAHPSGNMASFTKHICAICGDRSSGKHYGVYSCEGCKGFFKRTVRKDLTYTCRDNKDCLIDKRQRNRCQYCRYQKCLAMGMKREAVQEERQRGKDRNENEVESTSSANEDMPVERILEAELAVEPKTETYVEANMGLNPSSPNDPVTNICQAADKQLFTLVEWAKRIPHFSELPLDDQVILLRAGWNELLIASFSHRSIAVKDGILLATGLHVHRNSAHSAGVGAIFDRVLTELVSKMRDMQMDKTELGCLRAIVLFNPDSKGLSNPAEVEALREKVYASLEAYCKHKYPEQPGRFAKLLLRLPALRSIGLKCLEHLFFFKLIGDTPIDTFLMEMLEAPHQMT
The experiment is described as follows: Antagonist activity for Retinoic X receptor alpha in CV1 cells. It counts as functional, cell-based, CV-1.

Experiment [4] addresses T3, Retinoic acid receptor RXR-alpha. The experiment in a line: Binding affinity against Retinoic acid receptor RXR-alpha by [3H]9-cis-RA displacement.
For experiment [5], the target named is T4, Retinoic acid receptor RXR-gamma (Homo sapiens, UniProt P48443).
T4 sequence (P48443 whole entry): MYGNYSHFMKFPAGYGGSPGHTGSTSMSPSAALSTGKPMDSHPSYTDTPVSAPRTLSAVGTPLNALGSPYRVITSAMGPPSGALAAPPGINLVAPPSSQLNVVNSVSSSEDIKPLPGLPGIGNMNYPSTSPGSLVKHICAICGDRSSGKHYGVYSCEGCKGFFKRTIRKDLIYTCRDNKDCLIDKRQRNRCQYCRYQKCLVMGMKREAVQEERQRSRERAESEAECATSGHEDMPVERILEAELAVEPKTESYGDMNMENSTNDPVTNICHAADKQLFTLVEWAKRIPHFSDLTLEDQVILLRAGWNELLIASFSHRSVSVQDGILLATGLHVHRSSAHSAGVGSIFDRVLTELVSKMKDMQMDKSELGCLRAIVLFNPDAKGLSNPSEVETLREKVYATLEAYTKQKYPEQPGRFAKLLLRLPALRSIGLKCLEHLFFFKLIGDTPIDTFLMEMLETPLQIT
The experiment in a line: Displacement of [3H]9-cis-RA from retinoic X receptor gamma.

Experiment [6] concerns the target T3, Retinoic acid receptor RXR-alpha. The experiment in a line: Transcriptional activation in CV-1 cells expressing Retinoid X receptor alpha. It counts as cell-based.

A value given as a limit tells only on which side of the number the result lay.

In general, Ki refers to a dissociation constant, usually derived from enzyme kinetics or from competition with a known ligand. Low readings indicate higher affinity, high ones lower affinity. By IC50 is commonly meant the concentration needed to halve the response being measured. In the case of `C/C(=C\C(=O)O)c1cc2c(-c3cc(C(C)(C)C)cc(C(C)(C)C)c3OCC(F)(F)F)cccc2s1`, the inhibition constant Ki in experiment [1] is 0.01 µM; in experiment [2], greater than 10 µM; in experiment [4], 0.003 µM; in experiment [5], 0.02 µM. Further, the IC50 in experiment [3] worked out at 0.014 µM.
For the compound `CCCCCCCOc1c(-c2cccc3sc(/C(C)=C/C(=O)O)cc23)cc(C(C)(C)C)cc1C(C)(C)C`, the inhibition constant Ki is 0.012 µM in experiment [1], greater than 10 µM in experiment [2], 0.005 µM in experiment [4] and 0.028 µM in experiment [5]. It took 0.083 µM to reach half-maximal inhibition in experiment [3] (IC50).
Consider `C/C(=C/C=C/C(C)=C/C(=O)O)c1cc(C(C)(C)C)cc(C(C)(C)C)c1OCC(F)F`, for which the Ki in experiment [1] was 0.018 µM; in experiment [2], greater than 1 µM; in experiment [5], 0.039 µM.
For the compound `C/C(=C\C(=O)O)c1cc2cccc(-c3cc(C(C)C)cc(C(C)C)c3OCCCF)c2o1`, the Ki is greater than 10 µM in experiment [2] and 0.047 µM in experiment [4]. Also, the concentration for half-maximal inhibition (IC50) in experiment [3] came to 0.194 µM.
On to `C/C(=C\C(=O)O)c1cc2c(-c3cc(C(C)(C)C)cc(C(C)(C)C)c3OCCCF)cccc2s1`, for which the Ki was found to be 0.01 µM in experiment [1], 7.28 µM in experiment [2], 0.003 µM in experiment [4] and 0.021 µM in experiment [5]. This compound also displayed an IC50 in experiment [3] of 0.008 µM.
For the compound `C/C(=C\C(=O)O)c1cc2cccc(-c3cc(C(C)C)cc(C(C)C)c3OCC(F)(F)F)c2o1`, the Ki in experiment [1] turned out to be 0.142 µM; in experiment [4] it was 0.198 µM; in experiment [5], 0.334 µM. In experiment [3], this compound showed a half-inhibitory concentration (IC50) of 0.347 µM.
Turning to `CCCCOc1c(-c2cccc3cc(/C(C)=C(\F)C(=O)O)oc23)cc(C(C)C)cc1C(C)C`, the Ki in experiment [1] was 0.0645 µM; in experiment [2], greater than 10 µM; in experiment [4], 0.016 µM; in experiment [5] it was 0.028 µM. In experiment [3], this compound came in with an IC50 of 0.011 µM.
`Cc1cc2c(cc1C1(c3ccc(C(=O)O)cn3)CC1)C(C)(C)CCC2(C)C` had an inhibitory constant (Ki) in experiment [1] of 0.0075 µM.
For `C/C(=C\C(=O)O)c1cc2c(-c3cc(C(C)(C)C)cc(C(C)(C)C)c3OCCC(F)F)cccc2s1`, the inhibition constant (Ki) in experiment [1] is 0.012 µM; in experiment [2], greater than 10 µM; in experiment [4] it was 0.007 µM; in experiment [5], 0.037 µM. For the same compound, in experiment [3], the IC50 was 0.016 µM.
The term EC50 denotes the concentration that produces a half-maximal response. Read a high EC50 as a need for much substance. `CCOc1c(-c2cccc3cc(/C(C)=C/C(=O)O)oc23)cc(C(C)C)cc1C(C)C` showed an inhibitory constant (Ki) in experiment [2] greater than 10 µM. Moreover, the concentration giving a half-maximal response (EC50) in experiment [6] was found to be 0.074 µM.
Take `C/C(=C\C(=O)O)c1cc2cccc(-c3cc(C(C)C)cc(C(C)C)c3OCC(F)F)c2o1`: the inhibition constant Ki in experiment [1] is 0.261 µM; in experiment [2], greater than 10 µM; in experiment [4] it was 0.161 µM; in experiment [5], 0.5 µM. Further, half-maximal inhibition in experiment [3] (IC50) was put at 0.3 µM.
For the compound `C/C(=C\C(=O)O)c1cc2c(-c3cc(C(C)(C)C)cc(C(C)(C)C)c3C)cccc2s1`, the Ki in experiment [1] amounted to 0.033 µM; in experiment [2], 1.79 µM; in experiment [4], 0.007 µM; in experiment [5], 0.054 µM. In experiment [6], this compound registered an EC50 of 0.039 µM.
Regarding `CCOc1c(-c2cccc3cc(/C(C)=C/C(=O)O)sc23)cc(C(C)C)cc1C(C)C`, the Ki in experiment [2] came out at 6.02 µM; in experiment [4], 0.271 µM. The same compound yielded a half-maximal effective concentration (EC50) in experiment [6] of 0.39 µM.
For `C/C(=C(/F)C(=O)O)c1cc2cccc(-c3cc(C(C)C)cc(C(C)C)c3OCC(F)F)c2o1`, the inhibition constant Ki is 0.004 µM in experiment [1], greater than 10 µM in experiment [2], 0.101 µM in experiment [4] and 0.049 µM in experiment [5]. This compound also displayed an IC50 in experiment [3] of 0.022 µM.
Take `C/C(=C\C(=O)O)c1cc2c(-c3cc(C(C)(C)C)cc(C(C)(C)C)c3OCC(F)F)cccc2s1`: the values for the inhibition constant Ki in experiment [1], in experiment [2] and in experiment [5] were 0.055 µM, 8.36 µM and 0.02 µM, respectively. Also, the IC50 in experiment [3] worked out at 0.024 µM.
`CCCOc1c(-c2cccc3cc(/C(C)=C/C(=O)O)oc23)cc(C(C)C)cc1C(C)C`: the Ki came out at 8.5 µM in experiment [2] and 0.044 µM in experiment [4]. In experiment [3], the IC50 was found to be 0.128 µM.
With `CCCOc1c(-c2cccc3sc(/C(C)=C/C(=O)O)cc23)cc(C(C)C)cc1C(C)C`, the results for the Ki in experiment [1], in experiment [2] and in experiment [5] were 0.015 µM, 6.91 µM and 0.02 µM, respectively. The compound also had a concentration for half-maximal inhibition (IC50) in experiment [3] of 0.016 µM.
In the case of `CCOc1c(-c2cccc3sc(/C(C)=C/C(=O)O)cc23)cc(C(C)C)cc1C(C)C`, the Ki in experiment [1] was 0.011 µM; in experiment [2], greater than 10 µM; in experiment [4] it was 0.006 µM; in experiment [5], 0.012 µM. Moreover, it took 0.02 µM to reach a half-maximal effect in experiment [6] (EC50).
